Target: HPK1 (Homo sapiens (Human), UniProt Q92918)
Assay: HPK1 kinase activity inhibition test (ADP-Glo, luminescence)
Format: biochemical
Details: HPK1 5 nM, ATP 2 μM, read-out: IC50, inhibitory effects of compounds on HPK1 kinase activity
Protocol: 1. HPK1 Kinase Activity Inhibition Test
The kinase activity of HPK1 is manifested as activity of autophosphorylation and phosphorylation of downstream substrates. In the process of autophosphorylation, additional substrates are not required, and ATP is consumed to generate ADP. The amount of the product was measured by ADP-Glo reagent and luminescence method to reflect kinase activity.
Test compounds: compounds prepared in the examples of this application.
Prepare compound stock solution: dissolve the compound to be tested in 100% DMSO to make a 10 mM stock solution;
Prepare 4× Kinase Reaction Buffer:
Prepare 2×HPK1 Kinase Solution:
Dilute the stock solution of the compound to be tested by 5 times with […], make a 4-fold equal dilution in a 96-well dilution plate, add 1 μL of the compound to 49 µL of kinase reaction buffer, and shake on a microplate shaker for 20 minutes. Transfer 2 μL of […] kinase solution to 384 reaction plate, add 1 μL of the test compound to the 384 reaction plate (Greiner, 784075), centrifuge for 1 minute (1000 rpm/min), incubate at 25° C. for 10 minutes. Transfer […] of the 4×ATP mixture to a 384 reaction plate, centrifuge for 1 minute (1000 rpm/mm), and incubate at 25° C. for 60 minutes. In the reaction system, the final concentration of DMSO was […]. Transfer 4 μL of ADP-Glo to a 384 reaction plate, centrifuge for 1 minute (1000 rpm/min), and incubate at 25° C. for 40 minutes. Transfer 8 μL detection solution to a 384 reaction plate, centrifuge for 1 minute (1000 rpm/min), and incubate at 25° C. for 40 minutes. The […] signal was read using a Biotek multi-function plate reader, and the […] (half inhibitory concentration) of the compound was obtained using a four-coefficient nonlinear fitting formula.

HPK1, sequence (Q92918 whole entry): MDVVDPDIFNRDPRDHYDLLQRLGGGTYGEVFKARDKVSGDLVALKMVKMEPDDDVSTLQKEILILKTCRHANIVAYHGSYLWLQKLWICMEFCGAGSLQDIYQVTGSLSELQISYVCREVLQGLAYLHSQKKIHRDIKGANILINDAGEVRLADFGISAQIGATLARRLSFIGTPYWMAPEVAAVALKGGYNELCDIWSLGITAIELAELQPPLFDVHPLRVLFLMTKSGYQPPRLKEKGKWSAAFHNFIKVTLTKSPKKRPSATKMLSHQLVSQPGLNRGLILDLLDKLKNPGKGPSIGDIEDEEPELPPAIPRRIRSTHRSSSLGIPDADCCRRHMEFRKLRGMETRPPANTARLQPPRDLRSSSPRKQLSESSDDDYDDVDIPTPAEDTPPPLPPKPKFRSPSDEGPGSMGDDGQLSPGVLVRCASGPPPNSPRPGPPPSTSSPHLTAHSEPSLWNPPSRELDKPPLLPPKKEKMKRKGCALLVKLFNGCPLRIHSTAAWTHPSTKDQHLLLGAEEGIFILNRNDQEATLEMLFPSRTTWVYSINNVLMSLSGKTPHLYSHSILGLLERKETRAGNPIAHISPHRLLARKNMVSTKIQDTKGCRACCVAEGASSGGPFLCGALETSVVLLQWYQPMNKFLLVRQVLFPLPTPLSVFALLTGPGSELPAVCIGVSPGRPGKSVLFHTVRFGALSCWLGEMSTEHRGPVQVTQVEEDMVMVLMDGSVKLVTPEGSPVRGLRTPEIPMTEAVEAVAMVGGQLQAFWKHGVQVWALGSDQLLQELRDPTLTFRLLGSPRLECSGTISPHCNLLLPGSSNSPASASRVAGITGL

Compared with `COc1ccc(-n2nc3c(-c4ccc(C5=CCN(C)CC5)cc4)n[nH]c3cc2=O)c(OC)c1` [Compound 4, 5-(2,4-dimethoxyphenyl)-3-(4-(1-methyl-1,2,3,6-tetrahydropyridin-4-yl)phenyl)-1H-pyrazolo[4,3-c]pyridazin-6(5H)-one], `COc1ccc(-n2nc3c(-c4ccc(C5CCN(C)CC5)cc4)n[nH]c3cc2=O)c(OC)c1` [Compound 26, 5-(2,4-dimethoxyphenyl)-3-(4-(1-methylpiperidin-4-yl)phenyl)-1H-pyrazolo[4,3-c]pyridazin-6(5H)-one] is higher in IC50: at most 50 nM for the first, 500 to 2000 nM for the second.

`COc1cccc(F)c1-n1nc2c(-c3ccc(N4CCN(C)CC4)nc3)n[nH]c2cc1=O` [Compound 10] and `COc1cccc(C)c1-n1nc2c(-c3ccc(N4CCN(C)CC4)nc3)n[nH]c2cc1=O` [Compound 97, 5-(2-methoxy-6-methylphenyl)-3-(6-(4-methylpiperazin-1-yl)pyrid-3-yl)-1H-pyrazolo[4,3-c]pyridazin-6(5H)-one] cannot be ordered by IC50: at most 50 nM for the first, 50 to 500 nM for the second.

`Cc1cccc(F)c1-n1nc2c(-c3ccc(N4CCN(C)CC4=O)cc3)n[nH]c2cc1=O` [Compound 12, 5-(2-fluoro-6-methylphenyl)-3-(4-(4-methyl-2-oxopiperazin-1-yl)phenyl)-1H-pyrazolo[4,3-c]pyridazin-6(5H)-one] and `Cc1cccc(F)c1-n1nc2c(-c3ccc(CN4CCN(C)CC4=O)cc3)n[nH]c2cc1=O` [Compound 15, 5-(2-fluoro-6-methylphenyl)-3-(4-((4-methyl-2-oxo-piperazin-1-yl)methyl)phenyl)-1H-pyrazolo[4,3-c]pyridazin-6(5H)-one] fall in the same range of IC50: 500 to 2000 nM for the first, 500 to 2000 nM for the second.

`Cc1cccc(F)c1-n1nc2c(-c3cnn(C)c3)n[nH]c2cc1=O` [Compound 17, 5-(2-fluoro-6-methylphenyl)-3-(1-methyl-1H-pyrazol-4-yl)-1H-pyrazolo[4,3-c]pyridazin-6(5H)-one] and `Cc1cccc(F)c1-n1nc2c(-c3cnn(C4CCN(C)CC4)c3)n[nH]c2cc1=O` [Compound 19, 5-(2-fluoro-6-methylphenyl)-3-(1-(1-methylpiperidin-4-yl)-1H-pyrazol-4-yl)-1H-pyrazolo[4,3-c]pyridazin-6(5H)-one] fall in the same range of IC50: 500 to 2000 nM for the first, 500 to 2000 nM for the second.

`COc1cccc(F)c1-n1nc2c(-c3ccc(C4CCN(C)CC4)cc3)n[nH]c2cc1=O` [Compound 24, 5-(2-fluoro-6-methoxyphenyl)-3-(4-(1-methylpiperidin-4-yl)phenyl)-1H-pyrazolo[4,3-c]pyridazin-6(5H)-one] and `COc1cccc(F)c1-n1nc2c(-c3ccc(N4CCOCC4)cc3)n[nH]c2cc1=O` [Compound 92, 5-(2-fluoro-6-methoxyphenyl)-3-(4-morpholinophenyl)-1H-pyrazolo[4,3-c]pyridazin-6(5H)-one] cannot be ordered by IC50: at most 50 nM for the first, at most 50 nM for the second.

`Cc1cccc(F)c1-n1nc2c(-c3cnc(N4CCOCC4)nc3)n[nH]c2cc1=O` [Compound 32, 5-(2-fluoro-6-methylphenyl)-3-(2-morpholinylpyrimidin-5-yl)-1H-pyrazolo[4,3-c]pyridazin-6(5H)-one] and `CCc1cccc(F)c1-n1nc2c(-c3cnc(N4CCN(C)CC4)nc3)n[nH]c2cc1=O` [Compound 110, 5-(2-ethyl-6-fluorophenyl)-3-(2-(4-methylpiperazin-1-yl)pyrimidin-5-yl)-1H-pyrazolo[4,3-c]pyridazin-6(5H)-one] fall in the same range of IC50: 50 to 500 nM for the first, 50 to 500 nM for the second.

First: Cc1ccncc1-n1nc2c(-c3ccc(N4CCN(C)CC4)cc3)n[nH]c2cc1=O [Compound 47, 3-(4-(4-methylpiperazin-1-yl)phenyl)-5-(4-methylpyrid-3-yl)-1H-pyrazolo[4,3-c]pyridazin-6(5H)-one]
Second: COc1ccncc1-n1nc2c(-c3ccc(N4CCN(C)CC4)cc3)n[nH]c2cc1=O [Compound 48, 5-(4-methoxypyrid-3-yl)-3-(4-(4-methylpiperazin-1-yl)phenyl)-1H-pyrazolo[4,3-c]pyridazin-6(5H)-one]
The IC50 of the first is higher: 500 to 2000 nM for the first, 50 to 500 nM for the second.

`Cc1cccc(F)c1-n1nc2c(-c3ccc(N4CCN(C)CC4)cc3)n[nH]c2c(C)c1=O` [Compound 55, 5-(2-fluoro-6-methylphenyl)-7-methyl-3-(4-(4-methylpiperazin-1-yl)phenyl)-1H-pyrazolo[4,3-c]pyridazin-6(5H)-one] and `Cc1cc(Cl)cc(F)c1-n1nc2c(-c3ccc(N4CCN(C)CC4)cc3)n[nH]c2cc1=O` [Compound 78, 5-(4-chloro-2-fluoro-6-methylphenyl)-3-(4-(4-methylpiperazin-1-yl)phenyl)-1H-pyrazolo[4,3-c]pyridazin-6(5H)-one] fall in the same range of IC50: 50 to 500 nM for the first, 50 to 500 nM for the second.

`COc1cccc(F)c1-n1nc2c(-c3ccc4c(c3)CCN(C)C4)n[nH]c2cc1=O` [Compound 72, 5-(2-fluoro-6-methoxyphenyl)-3-(2-methyl-1,2,3,4-tetrahydroisoquinolin-6-yl)-1H-pyrazolo[4,3-c]pyridazin-6(5H)-one] and `COc1cccc(F)c1-n1nc2c(-c3ccc(N4CCN5C(=O)CN(C)CC5C4)cc3)n[nH]c2cc1=O` (stereo not shown) [Compound 132, 8-(4-(5-(2-fluoro-6-methoxyphenyl)-6-oxo-5,6-dihydro-1H-pyrazolo[4,3-c]pyridazin-3-yl)phenyl)-2-methylhexahydro-1H-pyrazino[1,2-a]pyrazin-4(6H)-one] cannot be ordered by IC50: 50 to 500 nM for the first, at most 50 nM for the second.

`CN1CCN(c2ccc(-c3n[nH]c4cc(=O)n(-c5cccc6c5COC6)nc34)cc2)CC1` [Compound 75, 5-(1,3-dihydroisobenzofuran-4-yl)-3-(4-(4-methylpiperazin-1-yl)phenyl)-1H-pyrazolo[4,3-c]pyridazin-6(5H)-one] and `COc1cc(C)c(-n2nc3c(-c4ccc(N5CCN(C)CC5)cc4)n[nH]c3cc2=O)cn1` [Compound 149] fall in the same range of IC50: 500 to 2000 nM for the first, 500 to 2000 nM for the second.

`Cc1cccc(F)c1-n1nc2c(-c3ccc(N4CCN(CC(F)F)CC4)cc3)n[nH]c2cc1=O` [Compound 84] and `CCN1CCN(c2ccc(-c3n[nH]c4cc(=O)n(-c5c(C)cccc5F)nc34)cn2)CC1` [Compound 101, 3-(6-(4-ethylpiperazin-1-yl)pyrid-3-yl)-5-(2-fluoro-6-methylphenyl)-1H-pyrazolo[4,3-c]pyridazin-6(5H)-one] cannot be ordered by IC50: 50 to 500 nM for the first, at most 50 nM for the second.

`Cc1cccc(F)c1-n1nc2c(-c3ccc(N4CC5CC(C4)N5C)cc3)n[nH]c2cc1=O` [Compound 91, 5-(2-fluoro-6-methylphenyl)-3-(4-(6-methyl-3,6-diazabicyclo[3.1.1]heptan-3-yl)phenyl)-1H-pyrazolo[4,3-c]pyridazin-6(5H)-one] and `Cc1cccc(F)c1-n1nc2c(-c3ccc(N4CCN5C(=O)OCC5C4)cc3)n[nH]c2cc1=O` (stereo not shown) [Compound 122, 7-(4-(5-(2-fluoro-6-methylphenyl)-6-oxo-5,6-dihydro-1H-pyrazolo[4,3-c]pyridazin-3-yl)phenyl)tetrahydro-1H-oxazolo[3,4-a]pyrazin-3(5H)-one] cannot be ordered by IC50: at most 50 nM for the first, at most 50 nM for the second.

`Cc1cccc(F)c1-n1nc2c(-c3ccc(N4CCN(C)CC4)c(CN(C)C)c3)n[nH]c2cc1=O` [Compound 95, 3-(3-((dimethylamino)methyl)-4-(4-methylpiperazin-1-yl)phenyl)-5-(2-fluoro-6-methylphenyl)-1H-pyrazolo[4,3-c]pyridazin-6(5H)-one] and `CNCc1cc(-c2n[nH]c3cc(=O)n(-c4c(C)cccc4F)nc23)ccc1N1CCN(C)CC1` [Compound 96, 3-(3-((methylamino)methyl)-4-(4-methylpiperazin-1-yl)phenyl)-5-(2-fluoro-6-methylphenyl)-1H-pyrazolo[4,3-c]pyridazin-6(5H)-one] fall in the same range of IC50: 50 to 500 nM for the first, 50 to 500 nM for the second.

`CC(=O)N1CCN(c2ccc(-c3n[nH]c4cc(=O)n(-c5c(C)cccc5F)nc34)cn2)CC1` [Compound 102, 3-(6-(4-acetylpiperazin-1-yl)pyrid-3-yl)-5-(2-fluoro-6-methylphenyl)-1H-pyrazolo[4,3-c]pyridazin-6(5H)-one] and `Cc1cccc(F)c1-n1nc2c(-c3ccc(N4CCS(=O)(=O)CC4)nc3)n[nH]c2cc1=O` [Compound 104, 3-(6-(1,1-dioxidothiomorpholino)pyrid-3-yl)-5-(2-fluoro-6-methylphenyl)-1H-pyrazolo[4,3-c]pyridazin-6(5H)-one] fall in the same range of IC50: 50 to 500 nM for the first, 50 to 500 nM for the second.

`COc1cccc(F)c1-n1nc2c(-c3ccc(N4CCN5C(=O)OCC5C4)cc3)n[nH]c2cc1=O` (stereo not shown) [Compound 123, 7-(4-(5-(2-fluoro-6-methoxyphenyl)-6-oxo-5,6-dihydro-1H-pyrazolo[4,3-c]pyridazin-3-yl)phenyl)tetrahydro-1H-oxazolo[3,4-a]pyrazin-3(5H)-one] and `Cc1cccc(F)c1-n1nc2c(-c3ccc(N4CCN(C)C(C(=O)O)C4)cc3)n[nH]c2cc1=O` (stereo not shown) [Compound 131, 4-(4-(5-(2-fluoro-6-methylphenyl)-6-oxo-5,6-dihydro-1H-pyrazolo[4,3-c]pyridazin-3-yl)phenyl)-1-methylpiperazin-2-carboxylic acid] cannot be ordered by IC50: at most 50 nM for the first, 50 to 500 nM for the second.

Compound `Cc1ccncc1-n1nc2c(-c3ccc(C4=CCN(C)CC4)cc3)n[nH]c2cc1=O` [Compound 150, 3-(4-(1-methyl-1,2,3,6-tetrahydropyridin-4-yl)phenyl)-5-(4-methylpyrid-3-yl)-1H-pyrazolo[4,3-c]pyridazin-6(5H)-one] has an IC50 of 500 to 2000 nM.
